# Experimental data from US20230346793A1, “Compositions and Methods for Treating SARS-CoV-2” (priority 2020, published 2023).
# Assays:
# [1] = tested on: SARS-CoV-2; assay: microbe, parasite or virus in culture; format: cell-based; conditions: for EC50: Severe acute respiratory syndrome coronavirus 2, Vero C1008, in Primates, read-out: EC50 (effective concentration that gave half-maximal response), inhibition of SARS-CoV-2 infection; for inhibition of SARS-CoV-2 infection: VeroE6 plaque reduction assay, dose-dependent analysis
# [2] = molecular target: calmodulin (Homo sapiens, UniProt P0DP23); conditions: Winkler 1987; Zimmer and Hofmann 1984; Reiermann and Rüegg 1986; cited from earlier work
SMILES,EC50 [1] [µM],inhibition of SARS-CoV-2 infection [1],inhibition of calmodulin [2]
"CN1CCN(CCCN2c3ccccc3Sc3ccc(C(F)(F)F)cc32)CC1 [TFP, Trifluoperazine]",7.7,potently inhibited SARS-CoV-2 infection in a dose-dependent fashion,
"CC(C)COCC(CN(Cc1ccccc1)c1ccccc1)N1CCCC1 (centres unmarked) [BPD, Bepridil]",7.13,strong inhibition of SARS-CoV-2 infection in a dose-dependent manner,inhibit calmodulin
